This passage reports IC50 and inhibition results from ChEMBL document CHEMBL1149679 (Bioorg Med Chem Lett, 2007).

Test [1] deals with T1, Polyunsaturated fatty acid lipoxygenase ALOX15 (Oryctolagus cuniculus, UniProt P12530).
T1 sequence (P12530 whole entry): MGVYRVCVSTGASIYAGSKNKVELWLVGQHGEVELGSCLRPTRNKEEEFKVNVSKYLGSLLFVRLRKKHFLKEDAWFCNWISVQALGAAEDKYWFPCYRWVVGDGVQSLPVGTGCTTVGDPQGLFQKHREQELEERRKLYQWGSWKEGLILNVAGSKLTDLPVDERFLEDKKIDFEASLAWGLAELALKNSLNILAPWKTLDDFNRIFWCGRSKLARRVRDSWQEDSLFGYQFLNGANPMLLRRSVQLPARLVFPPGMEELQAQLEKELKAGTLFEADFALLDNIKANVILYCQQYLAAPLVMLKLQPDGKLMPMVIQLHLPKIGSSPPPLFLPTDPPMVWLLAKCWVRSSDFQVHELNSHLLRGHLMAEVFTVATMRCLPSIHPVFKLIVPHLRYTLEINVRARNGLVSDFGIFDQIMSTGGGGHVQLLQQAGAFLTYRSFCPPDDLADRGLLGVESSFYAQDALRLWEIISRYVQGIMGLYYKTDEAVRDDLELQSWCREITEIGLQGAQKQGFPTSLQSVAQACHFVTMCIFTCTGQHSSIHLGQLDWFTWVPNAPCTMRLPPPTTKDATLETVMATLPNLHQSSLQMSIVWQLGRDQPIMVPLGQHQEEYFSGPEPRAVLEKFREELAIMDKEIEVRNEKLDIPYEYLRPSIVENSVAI
In words: Inhibition of rabbit 15-lipoxygenase in presence of linoleic acid.

Test [2] has as its target T1, Polyunsaturated fatty acid lipoxygenase ALOX15. Put plainly: Inhibition of rabbit 15-lipoxygenase in presence of arachidonic acid.
Test [3] deals with T2, Polyunsaturated fatty acid lipoxygenase ALOX15B (Homo sapiens) (UniProt O15296).
T2 sequence (whole entry): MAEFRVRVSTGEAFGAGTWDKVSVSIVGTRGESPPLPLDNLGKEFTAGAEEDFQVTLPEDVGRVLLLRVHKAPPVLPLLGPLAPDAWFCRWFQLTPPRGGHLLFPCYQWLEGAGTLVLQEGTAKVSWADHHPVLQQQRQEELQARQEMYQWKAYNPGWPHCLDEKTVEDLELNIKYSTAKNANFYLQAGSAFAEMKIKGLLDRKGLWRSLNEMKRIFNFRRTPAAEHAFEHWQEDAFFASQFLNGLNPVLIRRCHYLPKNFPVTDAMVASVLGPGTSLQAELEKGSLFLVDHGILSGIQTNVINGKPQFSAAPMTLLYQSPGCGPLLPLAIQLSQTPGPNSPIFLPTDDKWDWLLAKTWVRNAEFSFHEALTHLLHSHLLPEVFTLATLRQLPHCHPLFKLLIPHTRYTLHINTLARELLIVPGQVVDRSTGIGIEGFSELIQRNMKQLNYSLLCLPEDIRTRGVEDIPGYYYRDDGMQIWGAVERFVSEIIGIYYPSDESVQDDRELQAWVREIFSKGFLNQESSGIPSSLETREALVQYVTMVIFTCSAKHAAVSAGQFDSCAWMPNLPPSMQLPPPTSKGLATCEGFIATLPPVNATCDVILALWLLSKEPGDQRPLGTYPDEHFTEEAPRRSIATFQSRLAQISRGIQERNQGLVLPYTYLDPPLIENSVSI
Put plainly: Inhibition of human recombinant 15-lipoxygenase over-expressed in CHO cells at 10 uM. In kind it is cell-based.

Test [4] concerns the target T3, Polyunsaturated fatty acid lipoxygenase ALOX12 (Homo sapiens) (UniProt P18054).
T3 sequence (whole entry): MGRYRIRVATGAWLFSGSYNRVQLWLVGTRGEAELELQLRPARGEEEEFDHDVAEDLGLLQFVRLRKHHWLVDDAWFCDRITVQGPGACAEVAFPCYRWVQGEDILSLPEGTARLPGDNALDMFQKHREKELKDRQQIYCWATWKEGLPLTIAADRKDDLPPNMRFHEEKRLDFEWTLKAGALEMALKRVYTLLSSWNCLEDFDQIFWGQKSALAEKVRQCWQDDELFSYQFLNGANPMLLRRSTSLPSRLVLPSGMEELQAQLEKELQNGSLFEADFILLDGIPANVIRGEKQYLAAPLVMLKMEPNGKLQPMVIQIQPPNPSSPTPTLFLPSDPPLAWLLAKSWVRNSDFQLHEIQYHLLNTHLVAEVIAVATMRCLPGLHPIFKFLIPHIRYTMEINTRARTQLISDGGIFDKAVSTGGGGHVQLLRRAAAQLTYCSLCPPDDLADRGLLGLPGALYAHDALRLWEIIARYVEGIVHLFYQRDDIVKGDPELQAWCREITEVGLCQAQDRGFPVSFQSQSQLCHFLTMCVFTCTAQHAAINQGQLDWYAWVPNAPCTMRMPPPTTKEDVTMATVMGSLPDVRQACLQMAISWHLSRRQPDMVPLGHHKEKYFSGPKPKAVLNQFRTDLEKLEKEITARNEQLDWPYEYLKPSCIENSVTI
Put plainly: Inhibition of platelet 12-lipoxygenase at 10 uM.

In test [5] the target is T4, Polyunsaturated fatty acid 5-lipoxygenase (Homo sapiens) (UniProt P09917).
T4 sequence (whole entry): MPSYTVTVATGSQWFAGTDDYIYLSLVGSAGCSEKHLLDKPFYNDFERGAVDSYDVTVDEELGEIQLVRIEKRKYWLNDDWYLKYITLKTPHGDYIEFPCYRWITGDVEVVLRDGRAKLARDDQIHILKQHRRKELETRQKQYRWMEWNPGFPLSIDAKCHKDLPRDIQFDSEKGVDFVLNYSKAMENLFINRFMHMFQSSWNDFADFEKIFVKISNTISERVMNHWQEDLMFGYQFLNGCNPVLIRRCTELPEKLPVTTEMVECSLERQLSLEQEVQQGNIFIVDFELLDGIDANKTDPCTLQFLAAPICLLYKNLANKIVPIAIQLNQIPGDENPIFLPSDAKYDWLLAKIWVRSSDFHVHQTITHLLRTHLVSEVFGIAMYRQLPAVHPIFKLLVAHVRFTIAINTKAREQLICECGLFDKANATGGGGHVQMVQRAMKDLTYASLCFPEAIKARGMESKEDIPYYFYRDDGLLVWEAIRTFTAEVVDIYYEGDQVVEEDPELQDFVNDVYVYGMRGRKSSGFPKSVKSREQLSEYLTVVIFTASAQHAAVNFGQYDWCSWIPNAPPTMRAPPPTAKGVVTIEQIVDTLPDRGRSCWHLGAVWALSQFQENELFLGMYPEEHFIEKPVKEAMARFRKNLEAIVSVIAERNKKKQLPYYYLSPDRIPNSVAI
In words: Inhibition of human 5-lipoxygenase at 10 uM.

The structures appear in SMILES notation. pIC50: −log10 of the molar value.

In the case of `CCCCCc1ccc(S(=O)(=O)NCCc2nc(-c3ccncc3)[nH]c2-c2ccc(OC)cc2)cc1`, the pIC50 in test [1] is 7.06; in test [2] it was 5.49.
`CCCCCc1ccc(S(=O)(=O)NCCc2nc(-c3ccc(OC)cc3)[nH]c2-c2ccc(OC)cc2)cc1`: the pIC50 in test [1] is less than 5.00.
As for `CCCCCc1ccc(S(=O)(=O)NCCc2nc(-c3ccc(Cl)cc3)[nH]c2-c2ccc(OC)cc2)cc1`, the pIC50 in test [1] was 7.68; in test [2], 5.96.
For `COc1ccc(-c2[nH]c(-c3ccccc3)nc2CCNS(=O)(=O)N(C)[C@H]2CCN(Cc3ccccc3)C2)cc1`, the pIC50 was 7.10 in test [1] and 7.09 in test [2].
Consider `COc1ccc(-c2[nH]c(-c3ccccc3)nc2CCNS(=O)(=O)N2CCN(c3ccc(Cl)c(Cl)c3)CC2)cc1`, for which the negative logarithm of the IC50 (pIC50) was 7.26 in test [1] and 6.42 in test [2].
Taken in the same sequence, the figures for `COc1ccc(-c2[nH]c(-c3ccccc3)nc2CCNS(=O)(=O)N[C@@H]2CCN(Cc3ccccc3)C2)cc1` were 7.08 and 6.14.
Taken in the same sequence, the figures for `CCCCCN1CCN(S(=O)(=O)NCCc2nc(-c3cccs3)[nH]c2-c2ccc(OC)cc2)CC1` were 7.04 and 6.19.
The corresponding values for `CCCCCc1ccc(S(=O)(=O)NCCCc2nc(-c3ccccc3)[nH]c2-c2ccc(OC)cc2)cc1` are 6.85 and 6.04.
With `CCCCCc1ccc(S(=O)(=O)NCCc2nc(-c3ccccn3)[nH]c2-c2ccc(OC)cc2)cc1`, the negative-log IC50 (pIC50) is 6.01 in test [1] and 5.27 in test [2].
Take `CCCCCc1ccc(S(=O)(=O)NCCc2nc(-c3cnccn3)[nH]c2-c2ccc(OC)cc2)cc1`: the pIC50 in test [1] is 5.55.
Turning to `CCCCCc1ccc(S(=O)(=O)NCCc2nc(-c3cccc([N+](=O)[O-])c3)[nH]c2-c2ccc(OC)cc2)cc1`, the results for the pIC50 in test [1] and in test [2] were 7.00 and 5.96, respectively.
Consider `CCCCCc1ccc(S(=O)(=O)NCCc2nc(-c3cccnc3)[nH]c2-c2ccc(OC)cc2)cc1`, for which, in test [1], the pIC50 was 6.25.
Take `COc1ccc(-c2[nH]c(-c3ccccc3)nc2CCNS(=O)(=O)N(C)[C@@H]2CCN(Cc3ccccc3)C2)cc1`: the pIC50 was 7.51 in test [1] and 6.73 in test [2]. For the same molecule, in test [3], the inhibition is 70%.
For the molecule `CCCCCc1ccc(S(=O)(=O)NCCc2nc(-c3csc(C)n3)[nH]c2-c2ccc(OC)cc2)cc1`, the pIC50 in test [1] was 6.14.
For the molecule `CCCCCc1ccc(S(=O)(=O)NCCc2nc(C3CC3)[nH]c2-c2ccc(OC)cc2)cc1`, the pIC50 in test [1] and in test [2] was less than 5.00 in each case.
For `COc1ccc(-c2[nH]c(-c3ccccc3)nc2CCNS(=O)(=O)c2ccc(C)cc2)cc1`, the pIC50 in test [1] was 6.44; in test [2], 5.55.
Taken in the same sequence, the figures for `COc1ccc(-c2[nH]c(-c3ccccc3)nc2CCNS(=O)(=O)N2CCN(c3ccccc3)CC2)cc1` were 6.67 and 5.46.
The corresponding values for `COc1ccc(-c2[nH]c(-c3cccs3)nc2CCNS(=O)(=O)N(C)[C@@H]2CCN(Cc3ccccc3)C2)cc1` are 7.42 and 6.43.
The corresponding values for `COc1ccc(-c2[nH]c(-c3ccccc3)nc2CCNS(=O)(=O)N[C@H]2CCN(Cc3ccccc3)C2)cc1` are 6.57 and 5.62.
For `CCCCCc1ccc(S(=O)(=O)NCCc2nc(-c3ccccc3)[nH]c2-c2ccc(F)cc2)cc1`, the results for the inhibition in test [4] and in test [5] were 47% and 45%, respectively. The pIC50 in test [1] is 7.23; in test [2], 6.58.
With `CCCCCc1ccc(S(=O)(=O)NCCc2nc(C(C)(C)C)[nH]c2-c2ccc(OC)cc2)cc1`, the pIC50 in test [1] is 5.72; in test [2] it was less than 5.00.
With `CCCCCc1ccc(S(=O)(=O)NCCc2nc(-c3ccc(C)cc3)[nH]c2-c2ccc(OC)cc2)cc1`, in test [1], the pIC50 was less than 5.52.
On to `CCCCCc1ccc(S(=O)(=O)NCCc2nc(-c3ccccc3)[nH]c2-c2ccccc2)cc1`, for which the inhibition was found to be 32% in test [4] and 39% in test [5]. The pIC50 in test [1] was 7.48; in test [2], 6.79.
Turning to `CCCCCc1ccc(S(=O)(=O)NCCc2nc(-c3ccccc3)[nH]c2-c2cccc(OC)c2)cc1`, the pIC50 is 7.09 in test [1] and 6.27 in test [2].
Turning to `COc1ccc(-c2[nH]c(-c3cccs3)nc2CCNS(=O)(=O)N2CCN(c3ccccc3Cl)CC2)cc1`, the values for the pIC50 in test [1] and in test [2] were 7.35 and 6.88, respectively.
Regarding `CCN([C@@H]1CCN(C(C)(C)c2ccccc2)C1)S(=O)(=O)NCCc1nc(-c2cccs2)[nH]c1-c1ccc(OC)cc1`, the pIC50 is 8.00 in test [1] and 6.88 in test [2].
As to `CCCCCc1ccc(S(=O)(=O)NCCCc2nc(-c3cccs3)[nH]c2-c2ccc(OC)cc2)cc1`, the pIC50 in test [1] was 7.28; in test [2] it was 6.40.
`COc1ccc(-c2[nH]c(-c3cccs3)nc2CCNS(=O)(=O)N2CCN(c3ccc(Cl)c(Cl)c3)CC2)cc1`: the pIC50 in test [1] is 7.44; in test [2], 6.88. Further, the inhibition in test [3] turned out to be 84%.
For the molecule `CCCCCc1ccc(S(=O)(=O)NCCc2nc(C)[nH]c2-c2ccc(OC)cc2)cc1`, the pIC50 in test [1] is less than 5.00.
On to `COc1ccc(-c2[nH]c(-c3cccs3)nc2CCNS(=O)(=O)N(C)[C@@H]2CCN(Cc3ccc(Cl)c(Cl)c3)C2)cc1`, for which the inhibition in test [4] was 42%; in test [5], 67%. In addition, the values for the pIC50 in test [1] and in test [2] were 7.96 and 7.08, respectively.
With `CCCCCc1ccc(S(=O)(=O)NCCc2nc(-c3ccccc3)[nH]c2-c2ccc(C(F)(F)F)cc2)cc1`, the pIC50 in test [1] was 7.14; in test [2], 6.43.
`CCCCCc1ccc(S(=O)(=O)NCCc2[nH]cnc2-c2ccc(OC)cc2)cc1`: the pIC50 in test [1] is less than 5.00.
Take `CCN([C@@H]1CCN(C(C)c2ccc(F)cc2)C1)S(=O)(=O)NCCc1nc(-c2cccs2)[nH]c1-c1ccc(OC)cc1` (stereo partly specified): the inhibition in test [3] was determined as 96%.

In general, pIC50 refers to −log10 of the IC50, conventionally taken in molar units. Broadly, the inhibition is the drop in the measured response relative to a control, in per cent.
